System: 997537-175-T-J1-PDC complex spheroid viability
Experiment: Anticancer human tumor 997537-175-T-J1-PDC patient-derived colon adenocarcinoma cell line growth inhibition [GQUAD]
Conditions: for IC50: curve of first compound; for viability, T/C: stronger effect = lower value
Description: DNA G-quadruplex Stabilizer Agents in Combinations in Complex Spheroids
A high-throughput screen of multi-cell type tumor spheroids was designed to identify active combinations of DNA G-quadruplex stabilizer agents and targeted small molecules. Complex spheroids include a stromal component modeled by human endothelial cells (HUVEC) and fibroblasts modeled by human mesenchymal stem cells (MSCs). The concentration ranges selected for each drug and investigational agent were based upon clinically achievable concentrations if the clinical Cmax of the agent was known.
Compounds. The drugs and investigational agents: pidnarulex (CX-5461; NSC782164), APTO-253 (NSC789042), BRACO-19 (NSC847499), peposertib (NSC802822), ceralasertib (NSC780249), elimusertib (NSC800525), camonsertib (NSC841442), AZD-1390 (NSC803789), olaparib (NSC753686), talazoparib (NSC767125), ART-558 (NSC835418), sotorasib (NSC818433), MRTX-1133 (NSC836407), SN-38 (NSC673596), topotecan (NSC609699), etoposide (NSC141540), doxorubicin (NSC123127), gemcitabine (NSC613327), 5-fluorouracil (NSC19893), paclitaxel (NSC125973), vemurafenib (NSC761431), panobinostat (NSC761190), R-306465 (JNJ-16241199; NSC773264), adavosertib (NSC754352), TP-3654 (NSC805149), carboplatin (NSC241240), KSQ-4279 (NSC840948), and staurosporine (NSC755774) were obtained from the National Cancer Institute (NCI) Developmental Therapeutics Program Chemical Repository (34). The FDA-approved anticancer drug set is available from the NCI Developmental Therapeutics Program. […] The stock solutions were prepared in dimethyl sulfoxide (DMSO, Sigma-Aldrich, St. Louis, MO, cat. D2650) at 800-fold the tested concentration and stored at -70 degrees C prior to their use. All drugs and investigational agents were tested over a range starting from a high concentration at or near the clinical Cmax and decreasing in half-log increments. If the clinical Cmax for an agent had not been determined, the highest concentration tested was 10 microM.
2.3 Cell Culture. All cells were maintained in an incubator at 37 degrees C and 5% CO2 with 95% humidity. The PDC lines were cultured according to standard operating procedures established by the NCI PDMR. All PDCs were thawed and cultured in Matrigel-coated flasks prepared with a working solution of 1X Ham's F-12 nutrient mix, without supplementation (Invitrogen, cat. 11765054), 100 U/mL penicillin-streptomycin (Invitrogen, cat. 15140122), and 2.5% Matrigel (Corning Inc., cat. 354248) for the first three passages. The 857933-349-R-J2-PDC line was cultured in 6C/Colon 1B media, which includes advanced DMEM/F-12 (Thermo Fisher Scientific, cat. 12634028), 10 mM HEPES (Thermo Fisher Scientific, cat. 15630080), 1X GlutaMAX supplement (Thermo Fisher Scientific, cat. 35050061), 0.1 mg/mL primocin (InvivoGen, cat. ant-pm-2), 10% defined fetal bovine serum, heat inactivated (HyClone Laboratories Inc., cat. SH30070.03HI), 50% L-WRN conditioned media (ATCC, cat. CRL-3276), 1.25 mM N-Acetyl-L-cysteine (Sigma-Aldrich, cat. A9165), 10 mM nicotinamide (Sigma-Aldrich, cat. N0636), 1X B-27 supplement (Thermo Fisher Scientific, cat. 17504044), 1X N-2 supplement (Thermo Fisher Scientific, cat. 17502048), 10 microM Y-27632 dihydrochloride (Tocris Bioscience, cat. 1254), and 50 ng/mL human EGF recombinant protein (Thermo Fisher Scientific, cat. PHG0311). The 485176-168-R4-J1-PDC line was cultured in Panc media, which includes all 6C/Colon 1B media components plus 100 ng/mL human FGF-10 (Thermo Fisher Scientific, cat. 100-26), 500 nM SB-431542 (Selleckchem, cat. S1067), and gastrin (Tocris, cat. 3006).
[…]

[1] = second compound 0.0316 µM, first compound 0.0316 µM
[2] = second compound 0.0316 µM, first compound 0.316 µM
[3] = second compound 0.1 µM, first compound 0.0316 µM
[4] = second compound 0.1 µM, first compound 0.316 µM
[5] = second compound 0.316 µM, first compound 0.0316 µM
[6] = second compound 0.316 µM, first compound 0.316 µM
[7] = second compound 1 µM, first compound 0.0316 µM
[8] = second compound 1 µM, first compound 0.316 µM
[9] = second compound 3.16 µM, first compound 0.0316 µM
[10] = second compound 3.16 µM, first compound 0.316 µM
[11] = second compound 10 µM, first compound 0.0316 µM
[12] = second compound 10 µM, first compound 0.316 µM
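Note: spheroids exposed to the agents for 7 days.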
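Throughout, for viability, T/C: 100% = DMSO vehicle control viability.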

**Q.** What does the source list for C=CC(=O)N1CCN(c2nc(=O)n(-c3c(C)ccnc3C(C)C)c3nc(-c4c(O)cccc4F)c(F)cc23)C(C)C1 (centres undefined) + CN(C)c1ccc(Nc2c3ccc(NC(=O)CCN4CCCC4)cc3nc3cc(NC(=O)CCN4CCCC4)ccc23)cc1?
**A.** IC50 (second compound 0.0316 µM): > 10 µM; IC50 (second compound 0.1 µM): > 10 µM; IC50 (second compound 0.316 µM): > 10 µM; IC50 (second compound 1 µM): > 10 µM; IC50 (second compound 3.16 µM): > 10 µM; IC50 (second compound 10 µM): > 10 µM; viability, T/C [1]: 103%; viability, T/C (second compound 0.0316 µM, first compound 0.1 µM): 99.2%; viability, T/C [2]: 86.6%; viability, T/C (second compound 0.0316 µM, first compound 1 µM): 68.8%; viability, T/C (second compound 0.0316 µM, first compound 3.16 µM): 70.6%; viability, T/C (second compound 0.0316 µM, first compound 10 µM): 85.6%; viability, T/C [3]: 87.7%; viability, T/C (second compound 0.1 µM, first compound 0.1 µM): 88.4%; viability, T/C [4]: 93.5%; viability, T/C (second compound 0.1 µM, first compound 1 µM): 82.1%; viability, T/C (second compound 0.1 µM, first compound 3.16 µM): 95.7%; viability, T/C (second compound 0.1 µM, first compound 10 µM): 89.8%; viability, T/C [5]: 90.7%; viability, T/C (second compound 0.316 µM, first compound 0.1 µM): 98.5%; viability, T/C [6]: 88.7%; viability, T/C (second compound 0.316 µM, first compound 1 µM): 77.5%; viability, T/C (second compound 0.316 µM, first compound 3.16 µM): 92.4%; viability, T/C (second compound 0.316 µM, first compound 10 µM): 74.7%; viability, T/C [7]: 89.5%; viability, T/C (second compound 1 µM, first compound 0.1 µM): 93.1%; viability, T/C [8]: 97.7%; viability, T/C (second compound 1 µM, first compound 1 µM): 67.9%; viability, T/C (second compound 1 µM, first compound 3.16 µM): 104%; viability, T/C (second compound 1 µM, first compound 10 µM): 96.2%; viability, T/C [9]: 69.1%; viability, T/C (second compound 3.16 µM, first compound 0.1 µM): 81.1%; viability, T/C [10]: 91.2%; viability, T/C (second compound 3.16 µM, first compound 1 µM): 83.5%; viability, T/C (second compound 3.16 µM, first compound 3.16 µM): 97.6%; viability, T/C (second compound 3.16 µM, first compound 10 µM): 81.2%; viability, T/C [11]: 77%; viability, T/C (second compound 10 µM, first compound 0.1 µM): 85.7%; viability, T/C [12]: 91.2%; viability, T/C (second compound 10 µM, first compound 1 µM): 98.4%; viability, T/C (second compound 10 µM, first compound 3.16 µM): 91.2%; viability, T/C (second compound 10 µM, first compound 10 µM): 93.9%

**Q.** How did the IC50 (second compound 0.0316 µM) turn out when CC[C@@]1(O)C(=O)OCc2c1cc1n(c2=O)Cc2cc3c(CN(C)C)c(O)ccc3nc2-1 + CN(C)c1ccc(Nc2c3ccc(NC(=O)CCN4CCCC4)cc3nc3cc(NC(=O)CCN4CCCC4)ccc23)cc1 was run?
**A.** > 0.316 µM

**Q.** And the IC50 (second compound 0.1 µM)?
**A.** > 0.316 µM

**Q.** And the IC50 (second compound 0.316 µM)?
**A.** > 0.316 µM

**Q.** What about the IC50 (second compound 1 µM) of the same compound?
**A.** > 0.316 µM

**Q.** What about the IC50 (second compound 3.16 µM) of the same compound?
**A.** > 0.316 µM

**Q.** What about the IC50 (second compound 10 µM) of the same compound?
**A.** > 0.316 µM

**Q.** And the viability, T/C (second compound 0.0316 µM, first compound 0.000999 µM)?
**A.** 90%

**Q.** And the viability, T/C (second compound 0.0316 µM, first compound 0.00316 µM)?
**A.** 84.8%

**Q.** What about the viability, T/C (second compound 0.0316 µM, first compound 0.00999 µM) of the same compound?
**A.** 86.4%

**Q.** What about the viability, T/C [1] of the same compound?
**A.** 61.1%

**Q.** And the viability, T/C (second compound 0.0316 µM, first compound 0.0999 µM)?
**A.** 82.5%

**Q.** What about the viability, T/C [2] of the same compound?
**A.** 64.2%

**Q.** What about the viability, T/C (second compound 0.1 µM, first compound 0.000999 µM) of the same compound?
**A.** 99%

**Q.** And the viability, T/C (second compound 0.1 µM, first compound 0.00316 µM)?
**A.** 103%

**Q.** And the viability, T/C (second compound 0.1 µM, first compound 0.00999 µM)?
**A.** 92.3%

**Q.** And the viability, T/C [3]?
**A.** 86.2%

**Q.** What about the viability, T/C (second compound 0.1 µM, first compound 0.0999 µM) of the same compound?
**A.** 76.8%

**Q.** What about the viability, T/C [4] of the same compound?
**A.** 63.3%

**Q.** And the viability, T/C (second compound 0.316 µM, first compound 0.000999 µM)?
**A.** 82.3%

**Q.** What about the viability, T/C (second compound 0.316 µM, first compound 0.00316 µM) of the same compound?
**A.** 81.9%

**Q.** And the viability, T/C (second compound 0.316 µM, first compound 0.00999 µM)?
**A.** 87.3%

**Q.** What about the viability, T/C [5] of the same compound?
**A.** 97.8%

**Q.** And the viability, T/C (second compound 0.316 µM, first compound 0.0999 µM)?
**A.** 91.5%

**Q.** What about the viability, T/C [6] of the same compound?
**A.** 69.3%

**Q.** What about the viability, T/C (second compound 1 µM, first compound 0.000999 µM) of the same compound?
**A.** 79.3%

**Q.** And the viability, T/C (second compound 1 µM, first compound 0.00316 µM)?
**A.** 91.1%

**Q.** What about the viability, T/C (second compound 1 µM, first compound 0.00999 µM) of the same compound?
**A.** 108%

**Q.** And the viability, T/C [7]?
**A.** 90.6%

**Q.** What about the viability, T/C (second compound 1 µM, first compound 0.0999 µM) of the same compound?
**A.** 96.9%

**Q.** And the viability, T/C [8]?
**A.** 68.9%

**Q.** And the viability, T/C (second compound 3.16 µM, first compound 0.000999 µM)?
**A.** 63.8%

**Q.** And the viability, T/C (second compound 3.16 µM, first compound 0.00316 µM)?
**A.** 79.7%

**Q.** What about the viability, T/C (second compound 3.16 µM, first compound 0.00999 µM) of the same compound?
**A.** 90.4%

**Q.** What about the viability, T/C [9] of the same compound?
**A.** 86.4%

**Q.** And the viability, T/C (second compound 3.16 µM, first compound 0.0999 µM)?
**A.** 95.2%

**Q.** What about the viability, T/C [10] of the same compound?
**A.** 65.9%

**Q.** And the viability, T/C (second compound 10 µM, first compound 0.000999 µM)?
**A.** 86.3%

**Q.** What about the viability, T/C (second compound 10 µM, first compound 0.00316 µM) of the same compound?
**A.** 88.6%

**Q.** And the viability, T/C (second compound 10 µM, first compound 0.00999 µM)?
**A.** 98.7%

**Q.** And the viability, T/C [11]?
**A.** 103%

**Q.** What about the viability, T/C (second compound 10 µM, first compound 0.0999 µM) of the same compound?
**A.** 99.6%

**Q.** What about the viability, T/C [12] of the same compound?
**A.** 73.3%
